According to patent US8674110B2, “Pyridylacetylenes for use as radiotracers and imaging agents” (Novartis AG, priority 2003, dated 2014):
pIC50, pKi: −log10 of the molar value. Where “and” joins values, the source holds several entries; their conditions need not be identical. Equal values may be shown once.

What was measured:
mGlu5 receptors = target: T1, mGlu5 receptors (Rattus norvegicus, UniProt P31424); test: Organ and brain structure distribution (biodistribution) with and without blockade; format: in vivo, Sprague-Dawley rats; settings: 30 min post-injection, individual values
T1 construct: from tissue; host or cells: rat brain regions and organs (in vivo tracer distribution)
Procedure: Two groups of male adult Sprague-Dawley rats weighing 250-300 g are used for the biodistribution studies. The first group (n=3) serves as the control group and the second group (n=3) serves as the blockade group. Each animal received 250-300 pmol (0.6-40 MBq) of 3-(6-methyl-pyridin-2-ylethynyl)-cyclohex-2-enone O-[^11C-methyl]oxime via a lateral tail vein. The blockade group is co-injected with 2-methyl-6-((3-methoxyphenyl)ethynyl)-pyridine (1 mg/kg) whereas the control group (n=3) receives a corresponding volume of 0.9% NaCl. The animals are sacrificed 30 min post-injection. Organ or brain regions such as hippocampus, striatum, cortex and cerebellum are removed and measured in a gamma-counter. The tissue distribution is expressed as percentage of injected dose per gram wet tissue (% ID/g organ).
K1, K2, K3 are individual values for control animals. B1, B2, B3 are individual values for animals co-injected with 2-methyl-6-((3-methoxyphenyl)ethynyl)-pyridine.

human mGlu5 receptor = target: T2, human mGlu5 receptor (Homo sapiens, UniProt P41594); test: Ki/IC50 determination (binding assay), radioligand displacement
T2 construct: expressed in transfected cells
Procedure: In vitro, the affinity for the mGlu5 receptor is determined using a radioligand displacement technique as described by Gasparini et al, Biorg. Med. Chem. Lett. 2002, 12, 407-409.

[1] = blockade animals B1-B3 co-injected with 2-methyl-6-((3-methoxyphenyl)ethynyl)-pyridine 1 mg/kg
[2] = control animals K1-K3 (0.9% NaCl), i.v. tail vein

T2 sequence (P41594 21-1180 isoform P41594-2 limits assumed): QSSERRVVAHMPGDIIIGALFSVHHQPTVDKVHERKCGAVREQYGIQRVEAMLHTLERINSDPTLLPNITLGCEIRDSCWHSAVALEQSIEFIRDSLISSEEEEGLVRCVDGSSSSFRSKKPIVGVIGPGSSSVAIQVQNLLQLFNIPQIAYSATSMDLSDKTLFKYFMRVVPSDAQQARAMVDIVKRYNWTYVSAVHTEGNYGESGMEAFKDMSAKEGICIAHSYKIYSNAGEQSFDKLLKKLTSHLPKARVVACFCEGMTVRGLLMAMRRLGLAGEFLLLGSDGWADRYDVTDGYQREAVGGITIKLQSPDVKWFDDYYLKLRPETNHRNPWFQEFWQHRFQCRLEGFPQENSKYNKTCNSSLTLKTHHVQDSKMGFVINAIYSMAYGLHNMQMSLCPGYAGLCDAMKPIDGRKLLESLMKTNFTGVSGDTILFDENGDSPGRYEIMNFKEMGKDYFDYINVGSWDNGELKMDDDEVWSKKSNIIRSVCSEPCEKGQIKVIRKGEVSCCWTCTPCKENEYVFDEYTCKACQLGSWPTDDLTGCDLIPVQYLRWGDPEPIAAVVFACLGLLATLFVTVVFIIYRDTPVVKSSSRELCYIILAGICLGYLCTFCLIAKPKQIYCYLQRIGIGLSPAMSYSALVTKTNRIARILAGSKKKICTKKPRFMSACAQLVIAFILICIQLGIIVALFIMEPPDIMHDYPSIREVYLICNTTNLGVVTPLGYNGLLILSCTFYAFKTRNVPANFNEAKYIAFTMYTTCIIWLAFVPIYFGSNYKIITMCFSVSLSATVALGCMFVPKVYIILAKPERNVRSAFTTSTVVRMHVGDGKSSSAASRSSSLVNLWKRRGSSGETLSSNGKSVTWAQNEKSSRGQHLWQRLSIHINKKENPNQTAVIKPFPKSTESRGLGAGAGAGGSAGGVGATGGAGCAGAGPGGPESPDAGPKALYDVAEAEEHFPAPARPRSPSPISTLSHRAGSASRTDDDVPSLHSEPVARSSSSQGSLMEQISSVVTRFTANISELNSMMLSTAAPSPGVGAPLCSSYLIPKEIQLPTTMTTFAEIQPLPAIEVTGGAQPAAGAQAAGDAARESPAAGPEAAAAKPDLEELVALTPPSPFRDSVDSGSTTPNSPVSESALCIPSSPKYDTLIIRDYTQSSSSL
T1 sequence (P31424 21-1203): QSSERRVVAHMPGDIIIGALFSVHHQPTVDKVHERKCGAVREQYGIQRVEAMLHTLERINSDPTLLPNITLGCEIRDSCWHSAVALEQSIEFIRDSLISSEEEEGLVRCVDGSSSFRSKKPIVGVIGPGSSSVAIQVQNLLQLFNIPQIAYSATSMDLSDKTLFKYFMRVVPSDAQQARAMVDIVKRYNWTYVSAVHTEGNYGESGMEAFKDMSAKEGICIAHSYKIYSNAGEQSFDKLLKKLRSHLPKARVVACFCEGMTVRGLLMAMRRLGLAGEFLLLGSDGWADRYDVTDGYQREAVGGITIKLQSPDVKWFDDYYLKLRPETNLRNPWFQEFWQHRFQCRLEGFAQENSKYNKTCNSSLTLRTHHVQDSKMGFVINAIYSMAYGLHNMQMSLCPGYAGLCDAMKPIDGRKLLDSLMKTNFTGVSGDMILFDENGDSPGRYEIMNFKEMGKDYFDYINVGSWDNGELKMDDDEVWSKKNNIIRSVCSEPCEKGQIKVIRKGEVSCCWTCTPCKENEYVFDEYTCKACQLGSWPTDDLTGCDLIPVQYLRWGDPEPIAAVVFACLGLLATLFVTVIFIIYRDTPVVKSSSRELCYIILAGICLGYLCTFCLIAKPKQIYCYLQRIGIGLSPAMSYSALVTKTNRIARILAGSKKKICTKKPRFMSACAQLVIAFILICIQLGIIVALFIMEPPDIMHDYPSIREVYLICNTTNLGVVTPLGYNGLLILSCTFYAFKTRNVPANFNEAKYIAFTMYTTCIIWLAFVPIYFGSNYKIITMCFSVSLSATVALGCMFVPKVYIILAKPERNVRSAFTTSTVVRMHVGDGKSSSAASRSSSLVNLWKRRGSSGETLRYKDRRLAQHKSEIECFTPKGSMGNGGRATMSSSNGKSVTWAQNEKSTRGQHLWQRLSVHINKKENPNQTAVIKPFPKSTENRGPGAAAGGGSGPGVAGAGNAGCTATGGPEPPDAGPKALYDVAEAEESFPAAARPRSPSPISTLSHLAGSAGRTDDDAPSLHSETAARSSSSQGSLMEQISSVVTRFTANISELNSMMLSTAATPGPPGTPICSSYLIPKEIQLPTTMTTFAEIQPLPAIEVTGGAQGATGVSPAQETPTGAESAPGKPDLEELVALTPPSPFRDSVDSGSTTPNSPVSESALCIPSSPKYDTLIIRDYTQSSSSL

pKi (human mGlu5 receptor; calculated using the Cheng-Prusoff equation, radioligand concentration 2 nM)	Hill coefficient (human mGlu5 receptor; displacement of [3H]-2-methyl-6-((3-methoxyphenyl)ethynyl)-pyridine, L-tk cell membranes, human mGlu5)	pIC50 (human mGlu5 receptor; membrane of L-tk cells stably expressing the human mGlu5 receptor, 95% confidence intervals: 6.0-10.0 nM, read-out: IC50 for the displacement of [3H]-2-methyl-6-((3-methoxyphenyl)ethynyl)-pyridine)	SMILES	percentage of injected dose per gram wet tissue, Cerebellum (mGlu5 receptors; [1])	percentage of injected dose per gram wet tissue, Cortex (mGlu5 receptors; [1])	percentage of injected dose per gram wet tissue, Hippocampus (mGlu5 receptors; [1])	percentage of injected dose per gram wet tissue, Midbrain (mGlu5 receptors; [1])	percentage of injected dose per gram wet tissue, Restbrain (mGlu5 receptors; [1])	percentage of injected dose per gram wet tissue, Striatum (mGlu5 receptors; [1])	percentage of injected dose per gram wet tissue, Whole brain (mGlu5 receptors; [1])	percentage of injected dose per gram wet tissue, Cerebellum (mGlu5 receptors; [2])	percentage of injected dose per gram wet tissue, Cortex (mGlu5 receptors; [2])	percentage of injected dose per gram wet tissue, Hippocampus (mGlu5 receptors; [2])	percentage of injected dose per gram wet tissue, Midbrain (mGlu5 receptors; [2])	percentage of injected dose per gram wet tissue, Restbrain (mGlu5 receptors; [2])	percentage of injected dose per gram wet tissue, Striatum (mGlu5 receptors; [2])	percentage of injected dose per gram wet tissue, Whole brain (mGlu5 receptors; [2])
			Cc1cccc(C#CC2=CC(=NO[11CH3])CCC2)n1 [Example 1, 3-(6-Methyl-pyridin-2-ylethynyl)-cyclohex-2-enone O-[^11C-methyl]-oxime]	0.04052 % ID/g organ and 0.03608 % ID/g organ and 0.03421 % ID/g organ	0.04964 % ID/g organ and 0.05582 % ID/g organ and 0.05431 % ID/g organ	0.05184 % ID/g organ and 0.06195 % ID/g organ and 0.05972 % ID/g organ	0.03876 % ID/g organ and 0.047 % ID/g organ and 0.04422 % ID/g organ	0.03832 % ID/g organ and 0.04762 % ID/g organ and 0.04383 % ID/g organ	0.06495 % ID/g organ and 0.07158 % ID/g organ and 0.06487 % ID/g organ	0.0458 % ID/g organ and 0.05118 % ID/g organ and 0.04951 % ID/g organ	0.03322 % ID/g organ and 0.03925 % ID/g organ and 0.03699 % ID/g organ	0.1485 % ID/g organ and 0.1832 % ID/g organ and 0.1691 % ID/g organ	0.1615 % ID/g organ and 0.2544 % ID/g organ and 0.2126 % ID/g organ	0.07703 % ID/g organ and 0.1056 % ID/g organ and 0.09091 % ID/g organ	0.05519 % ID/g organ and 0.0652 % ID/g organ and 0.0607 % ID/g organ	0.2256 % ID/g organ and 0.3069 % ID/g organ and 0.2816 % ID/g organ	0.1112 % ID/g organ and 0.1366 % ID/g organ and 0.13 % ID/g organ
8.40	1.08	8.10	CON=C1C=C(C#Cc2cccc(C)n2)CCC1 [3-(6-methyl-pyridin-2-ylethynyl)-cyclohex-2-enone O-methyl-oxime]														
